Test results: PubChem BioAssay (NCI)
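Where inhibition never reached the appropriate level, the endpoint shown equals the highest concentration tested. Otherwise, values were interpolated linearly from a five-concentration, 48-hour dose response in 96-well plates. The concentration for 50% growth inhibition is given as GI50. Definition used: TGI = concentration required for complete inhibition of growth.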

Assays:
Test in all cases: NCI-60 cell line screen, 48 h
DU-145 prostate = test system: DU-145 prostate
HL-60(TB) leukemia = test system: HL-60(TB) leukemia
OVCAR-3 ovarian = test system: OVCAR-3 ovarian
OVCAR-8 ovarian = test system: OVCAR-8 ovarian
SF-539 CNS = test system: SF-539 CNS
SK-MEL-5 melanoma = test system: SK-MEL-5 melanoma
SNB-19 CNS = test system: SNB-19 CNS
SR leukemia = test system: SR leukemia
TK-10 renal = test system: TK-10 renal
UACC-257 melanoma = test system: UACC-257 melanoma

| Structure (SMILES) | TGI (DU-145 prostate) | TGI (HL-60(TB) leukemia) | TGI (OVCAR-3 ovarian) | TGI (OVCAR-8 ovarian) | TGI (SF-539 CNS) | TGI (SK-MEL-5 melanoma) | TGI (SNB-19 CNS) | TGI (SR leukemia) | TGI (TK-10 renal) | TGI (UACC-257 melanoma) | GI50 (DU-145 prostate) | GI50 (HL-60(TB) leukemia) | GI50 (OVCAR-3 ovarian) | GI50 (OVCAR-8 ovarian) | GI50 (SF-539 CNS) | GI50 (SK-MEL-5 melanoma) | GI50 (SNB-19 CNS) | GI50 (SR leukemia) | GI50 (TK-10 renal) | GI50 (UACC-257 melanoma) |
| --- | --- | --- | --- | --- | --- | --- | --- | --- | --- | --- | --- | --- | --- | --- | --- | --- | --- | --- | --- | --- |
| OCCOCn1nc(-c2ccccc2)nc1-c1cnccn1 | > 100 µM | > 100 µM | > 100 µM | > 100 µM | > 100 µM | > 100 µM | > 100 µM | > 100 µM | > 100 µM | > 100 µM |  |  |  |  |  |  |  |  |  |  |
| COc1ccc(CNCCN2C(=O)c3ccc4c5c(ccc(c35)C2=O)C(=O)N(CCNCc2ccc(OC)cc2)C4=O)cc1 | 1.7 µM | 0.858 µM | 0.573 µM | 0.611 µM | 0.872 µM | 0.285 µM | 0.717 µM | 0.984 µM | 0.754 µM | 0.337 µM | 0.468 µM | 0.311 µM | 0.159 µM | 0.178 µM | 0.274 µM | 0.15 µM | 0.23 µM | 0.22 µM | 0.201 µM | 0.184 µM |
| O=C(/C=C/c1ccccc1O)CC(=O)/C=C/c1ccccc1O | > 31.6 µM | 9.87 µM | 22.3 µM | 23.3 µM | 15.7 µM | 14.6 µM | 22.9 µM | > 25 µM | > 100 µM | 18.7 µM |  |  |  |  |  |  |  |  |  |  |
| CC1CCC(O)/C=C/C(=O)OC(C)C(O)/C=C/C(=O)O1 (stereo not given) | > 100 µM | > 79.5 µM | > 100 µM | > 100 µM | > 100 µM | > 100 µM | > 100 µM | > 100 µM | > 100 µM | > 100 µM |  |  |  |  |  |  |  |  |  |  |
| Cc1cc(C)c2nc(Nc3nc(C)c(C)c(=O)[nH]3)nc(C)c2c1 | 24.1 µM | 6.98 µM | 13.1 µM | 10.7 µM | 10.3 µM | 11.8 µM | 14.3 µM | 7.43 µM | 17.9 µM | 9.22 µM | 3.8 µM | 2.53 µM | 3.59 µM | 2.83 µM | 2.54 µM | 3.06 µM | 3.19 µM | 2.18 µM | 3.05 µM | 2.82 µM |
